The target of one assay is T1, GSPT1 protein (Homo sapiens, UniProt P15170+Q96SW2).
T1 construct: endogenous in cells; host or cells: Jeko-1
As to the kind of experiment: Western blot detection of degradation activity of GSPT1 protein in Jeko-1 cells. In kind it is cell-based. Conditions: JeKo-1, 24 h, read-out: GSPT1 degradation rate (%). The essentials: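 Jeko-1 cells in RPMI1640 with 20% FBS treated with compound or DMSO for 24 h at 37° C. GSPT1 detected in lysates by Western blot with GAPDH as internal reference. Band intensities quantified by gray-level analysis to calculate GSPT1 degradation rate.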
(In general: A western blot detects proteins with antibodies after separation by electrophoresis.)

The test system of a further assay is Jeko-1 cells. Briefly: CCK8 method, inhibition of Jeko-1 cell proliferation. In kind it is cell-based. The conditions noted are these: Homo sapiens; Jeko-1, 72 hours; read-out: Cellular proliferation inhibition IC50. The protocol:
Test Example 3: CCK8 Method for Detecting Inhibition of Jeko-1 Cell Proliferation by Compound of Formula
Cell culture: The Jeko-1 cell line (human lymphoma cells) was cultured in RPMI-1640 complete medium containing […] and 1% penicillin streptomycin, and incubated in an incubator at 37° C., 5% CO2, and saturated humidity.
Cell laying: Jeko-1 cells in logarithmic growth phase was taken, centrifuged, and an appropriate amount of complete culture medium was added to obtain a single-cell suspension, a hemocytometer was used for cell counting, and a cell suspension of 1.5×10^5 cells/mL was prepared, the cells were inoculated into a 96 well culture plate at a rate of 100 μL cell suspension per well and incubated in a CO2 cell incubator for 24 hours.
CCK-8 detection: 72 hours after administration, 10% CCK-8 solution was added to each well, placed in a CO2 cell culture incubator, and incubated for 1-4 hours. The absorbance of each well was measured using a microplate reader at 450 nm.
Calculation of cellular proliferation inhibition rate:
Cellular proliferation inhibition rate (%)=[(Ac−As)/(Ac−Ab)]×100% • As: absorbance in experimental wells (including cells, culture medium, CCK-8 solution, and drug solution) • Ac: absorbance in control wells (including cells, culture medium, CCK-8 solution, without drugs) • Ab: absorbance in blank wells (including culture medium, CCK-8 solution, without cells or drugs)

In the next assay the test system is HNT-34 cells. As to the kind of experiment: CTG method, inhibition of HNT-34 cell proliferation. In kind it is cell-based. The conditions noted are these: HNT-34, 72 hours; read-out: Cellular proliferation inhibition IC50. Here is the method:
(§1) Test Example 2: CTG Method for Detecting the Inhibitory Effect of Compounds of Formula on the Proliferation of HNT 34 or HL-60 Cells
(§2) HNT-34 or HL-60 cells were taken and cultured in RPMI1640 medium containing 20% fetal bovine serum. The cells were inoculated on a 96 well plate, with 1×10^4 cells per well, and incubated at 37° C. in a […] incubator. After adding the test compound, it was incubated for 72 hours. Then an appropriate amount of CTG reagent was added, the luminescence value was measured, and the inhibition rate was calculated.

Another assay has as its system HL-60 cells. Briefly: CTG method, inhibition of HL-60 cell proliferation. The conditions noted are these: Homo sapiens; HL-60, 72 hours; read-out: Cellular proliferation inhibition IC50. In kind it is cell-based. Here is the method:
as §1, §2

The subject of assay [1] is MV-4-11 subcutaneous transplant tumor. As to the kind of experiment: In vivo efficacy in MV-4-11 subcutaneous transplant tumors. More on the design: species or system SCID mice. Conditions: tumor volume on the 27th day. Here is the method:
Test Example 4: Compound's In Vivo Efficacy in MV-4-11 Subcutaneous Transplant Tumors Experimental method: Human acute monocytic leukemia cell line MV-4-11 was used to construct a subcutaneous transplant tumor model in SCID mice. Grouping: solvent group, reference compound (IV: 2 mg/kg, Day 0-12; IP: 20 mg/kg, Day 13-26) group, 5-17 and 5-22 (IV: 0.5 mg/kg, Day 0-12; IP: 10 mg/kg, Day 13-26), with 5 animals in each group, once a day. The tumor volume on the 27th day was measured and the tumor inhibition rate was calculated. Tumor inhibition rate (%)=[(tumor volume in solvent group−tumor volume in drug group)/tumor volume in solvent group]×100%

Where [2] appears, read: IV 0.5 mg/kg Day 0-12, IP 10 mg/kg Day 13-26, once a day.

Where two headings read alike, the source gives them in different places.

T1 sequence (P15170 whole entry): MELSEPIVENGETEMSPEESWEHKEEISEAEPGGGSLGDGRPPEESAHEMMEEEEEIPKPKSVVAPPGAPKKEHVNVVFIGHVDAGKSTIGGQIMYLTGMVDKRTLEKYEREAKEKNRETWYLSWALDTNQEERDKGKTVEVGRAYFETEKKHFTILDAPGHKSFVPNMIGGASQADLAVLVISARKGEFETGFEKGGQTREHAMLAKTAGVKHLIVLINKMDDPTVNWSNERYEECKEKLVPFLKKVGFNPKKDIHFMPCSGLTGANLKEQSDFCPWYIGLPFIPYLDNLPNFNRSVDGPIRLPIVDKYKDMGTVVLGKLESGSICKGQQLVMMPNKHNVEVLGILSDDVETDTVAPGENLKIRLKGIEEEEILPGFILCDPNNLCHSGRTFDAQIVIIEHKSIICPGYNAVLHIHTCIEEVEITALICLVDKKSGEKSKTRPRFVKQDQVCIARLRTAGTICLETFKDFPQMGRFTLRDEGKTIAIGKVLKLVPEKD
T1 sequence (Q96SW2 whole entry): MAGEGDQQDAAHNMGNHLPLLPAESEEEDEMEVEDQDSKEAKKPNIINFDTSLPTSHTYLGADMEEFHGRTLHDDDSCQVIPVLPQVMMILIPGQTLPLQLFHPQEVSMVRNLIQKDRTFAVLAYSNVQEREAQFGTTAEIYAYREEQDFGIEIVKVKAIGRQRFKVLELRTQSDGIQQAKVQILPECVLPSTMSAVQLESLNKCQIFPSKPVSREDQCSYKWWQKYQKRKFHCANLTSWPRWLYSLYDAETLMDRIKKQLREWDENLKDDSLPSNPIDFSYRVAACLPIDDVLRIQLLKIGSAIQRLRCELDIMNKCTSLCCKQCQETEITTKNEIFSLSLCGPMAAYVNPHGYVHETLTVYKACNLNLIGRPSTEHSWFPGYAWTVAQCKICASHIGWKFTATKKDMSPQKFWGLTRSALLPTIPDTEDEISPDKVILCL
T1 sequence (Q16531 whole entry partner): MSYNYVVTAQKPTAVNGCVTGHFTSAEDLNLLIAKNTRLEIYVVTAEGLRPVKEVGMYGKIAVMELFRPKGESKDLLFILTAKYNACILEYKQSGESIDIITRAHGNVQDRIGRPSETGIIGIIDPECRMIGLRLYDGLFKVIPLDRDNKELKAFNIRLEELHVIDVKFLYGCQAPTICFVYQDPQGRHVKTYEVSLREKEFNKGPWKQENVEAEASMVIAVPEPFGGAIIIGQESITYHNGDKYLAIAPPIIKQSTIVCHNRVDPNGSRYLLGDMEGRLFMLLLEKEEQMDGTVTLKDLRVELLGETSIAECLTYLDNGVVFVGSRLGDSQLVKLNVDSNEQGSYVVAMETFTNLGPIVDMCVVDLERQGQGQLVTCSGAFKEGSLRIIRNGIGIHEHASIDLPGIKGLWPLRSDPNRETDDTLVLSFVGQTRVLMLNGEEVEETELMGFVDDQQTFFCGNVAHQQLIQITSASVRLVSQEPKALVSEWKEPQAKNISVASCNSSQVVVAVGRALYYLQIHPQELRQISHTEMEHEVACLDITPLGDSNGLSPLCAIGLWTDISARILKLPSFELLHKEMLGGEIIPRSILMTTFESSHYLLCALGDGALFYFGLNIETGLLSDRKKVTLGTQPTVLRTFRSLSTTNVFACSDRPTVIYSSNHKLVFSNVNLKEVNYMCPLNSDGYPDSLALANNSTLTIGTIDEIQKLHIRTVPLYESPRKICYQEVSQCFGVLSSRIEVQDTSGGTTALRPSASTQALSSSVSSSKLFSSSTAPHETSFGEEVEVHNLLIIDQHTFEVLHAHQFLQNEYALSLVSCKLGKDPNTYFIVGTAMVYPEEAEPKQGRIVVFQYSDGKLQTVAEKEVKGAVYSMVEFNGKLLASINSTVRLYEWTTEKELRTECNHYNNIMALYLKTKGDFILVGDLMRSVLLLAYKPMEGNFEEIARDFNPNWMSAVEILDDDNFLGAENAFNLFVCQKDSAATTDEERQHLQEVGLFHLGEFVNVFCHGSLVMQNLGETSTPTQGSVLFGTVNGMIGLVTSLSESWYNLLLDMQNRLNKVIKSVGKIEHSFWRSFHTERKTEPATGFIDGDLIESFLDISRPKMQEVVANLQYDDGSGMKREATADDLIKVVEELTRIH

In the case of `CC(C)(C)OC(=O)N[C@H](C(=O)NCc1ccc2c(c1)CN(C1CCC(=O)NC1=O)C2=O)c1ccccc1` (stereo partly drawn) [Compound 4-87, Tert butyl ((1S)-2-((2-(2,6-dioxopiperidin-3-yl)-1-oxoisoindolin-5-yl)methyl)amino)-2-oxo-1-phenylethyl) carbamate], the inhibition at 0.1 µM on GSPT1 protein (100 nM, Jeko-1 cells, 24 hours) was determined as 89%. Moreover, on GSPT1 protein (10 μM, Jeko-1 cells, 24 hours), the inhibition at 10 µM was determined as 93%. Further, the IC50 with Jeko-1 cells was found to be 0.2 nM.

Regarding `CC(C)(C)OC(=O)N[C@H](C(=O)NCc1ccc2c(c1)CN(C1CCC(=O)NC1=O)C2=O)c1ccc(Cl)cc1` (stereo partly drawn) [Compound 4-150, Tert butyl ((1S)-1-(4-chlorophenyl)-2-((2-(2,6-dioxopyridin-3-yl)-1-oxoisoidoline-5-yl)methyl)amino)-2-oxoethyl) carbamate], the IC50 is 6.5 nM with HNT-34 cells, 3.9 nM in the assay with Jeko-1 cells and 9.2 nM with HL-60 cells. Also, at GSPT1 protein (100 nM, Jeko-1 cells, 24 hours), the inhibition at 0.1 µM worked out at 90%. The inhibition at 10 µM on GSPT1 protein (10 μM, Jeko-1 cells, 24 hours) worked out at 99%.

For the compound `CC(C)(C)OC(=O)NC(C(=O)NCc1ccc2c(c1)CN(C1CCC(=O)NC1=O)C2=O)c1ccc(Cl)c(Cl)c1` (stereo not drawn) [Compound 4-151, Tert butyl (1-(3,4-dichlorophenyl)-2-((2-(2,6-dioxopyridin-3-yl)-1-oxoisoindoline-5-yl)methyl)amino)-2-oxoethyl) carbamate], the values for the IC50 in the assay with HNT-34 cells, in the assay on Jeko-1 cells and with HL-60 cells were 7.8 nM, 1.3 nM and 11.6 nM, respectively. The inhibition at 0.1 µM on GSPT1 protein (100 nM, Jeko-1 cells, 24 hours) turned out to be 77%. Moreover, the inhibition at 10 µM on GSPT1 protein (10 μM, Jeko-1 cells, 24 hours) came to 95%.

Consider `CC(C)(C)OC(=O)N[C@H](C(=O)NCc1ccc2c(c1)CN(C1CCC(=O)NC1=O)C2=O)c1ccc(F)c(Cl)c1` (stereo partly drawn) [Compound 4-152, Tert butyl (1-(3-chloro-4-fluorophenyl)-2-((2-(2,6-dioxopyridin-3-yl)-1-oxoisoindoline-5-yl)methyl)amino)-2-oxoethyl) carbamate], for which the IC50 in the assay with HNT-34 cells was 6.6 nM; in the assay with Jeko-1 cells, 0.7 nM; in the assay on HL-60 cells, 7.9 nM. Also, the inhibition at 0.1 µM at GSPT1 protein (100 nM, Jeko-1 cells, 24 hours) is 93%. The inhibition at 10 µM on GSPT1 protein (10 μM, Jeko-1 cells, 24 hours) was 82%.

With `O=C1CCC(N2Cc3cc(CNC(=O)[C@@H](NC(=O)OC4CCCC4)c4ccccc4)ccc3C2=O)C(=O)N1` (stereo partly drawn) [Compound 4-159, Cyclopentyl (1S)-2-((2-(2,6-dioxypiperidin-3-yl)-1-oxoisoindoline-5-yl)methyl)amino)-2-oxo-1-phenylethyl) carbamate], at GSPT1 protein, the inhibition at 0.1 µM stood at 93% and the inhibition at 10 µM was 99%. In addition, the IC50 in the assay on Jeko-1 cells was determined as 0.02 nM.

Consider `CC(C)C1CC[C@H](C)C[C@@H]1OC(=O)N[C@H](C(=O)NCc1ccc2c(c1)CN(C1CCC(=O)NC1=O)C2=O)c1ccccc1` (stereo partly drawn) [Compound 4-175], for which, at GSPT1 protein, the inhibition at 0.1 µM came out at 93% and the inhibition at 10 µM stood at 90%. For the same compound, the IC50 in the assay with Jeko-1 cells was 0.03 nM.

For the compound `CC(C)(C)OC(=O)NC(C(=O)NCc1ccc2c(c1)CN(C1CCC(=O)NC1=O)C2=O)c1ccccc1F` (stereo not drawn) [Compound 5-5, Tert butyl (2-((2-(2,6-dioxypiperidin-3-yl)-1-oxoisoidoline-5-yl)methyl)amino)-1-(2-fluorophenyl)-2-oxoethyl) carbamate], the inhibition at 0.1 µM at GSPT1 protein (100 nM, Jeko-1 cells, 24 hours) was 100%. Further, the inhibition at 10 µM on GSPT1 protein (10 μM, Jeko-1 cells, 24 hours) was determined as 100%. The IC50 in the assay with Jeko-1 cells turned out to be 0.2 nM.

Turning to `CC(C)(C)OC(=O)N[C@H](C(=O)NCc1ccc2c(c1)CN(C1CCC(=O)NC1=O)C2=O)c1ccccc1Cl` (stereo partly drawn) [Compound 5-17, Tert butyl ((1S)-1-(2-chlorophenyl)-2-((2-(2,6-dioxopyridin-3-yl)-1-oxoisoidoline-5-yl)methyl)amino)-2-oxoethyl) carbamate], the results for the IC50 with HNT-34 cells, in the assay with Jeko-1 cells and with HL-60 cells were 3.2 nM, 0.1 nM and 4.2 nM, respectively. Also, the “Tumor inhibition rate (%)” value in assay [1] (setting [2]) was 99.6%. The inhibition at 0.1 µM on GSPT1 protein (100 nM, Jeko-1 cells, 24 hours) is 94.2%. The inhibition at 10 µM at GSPT1 protein (10 μM, Jeko-1 cells, 24 hours) came out at 95.6%.

`CC(C)OC(=O)N[C@H](Cc1ccccc1)C(=O)NCc1ccc2c(c1)CN(C1CCC(=O)NC1=O)C2=O` (stereo partly drawn) [Compound 5-22, Isopropyl ((2R)-1-((2-(2,6-dioxypiperidin-3-yl)-1-oxoisoindolin-5-yl)methyl)amino)-1-oxo-3-phenylprop-2-yl) carbamate]: the IC50 in the assay with HNT-34 cells was found to be 21.3 nM; in the assay on Jeko-1 cells it was 0.6 nM; in the assay on HL-60 cells, 18.6 nM. Also, the “Tumor inhibition rate (%)” value in assay [1] (setting [2]) worked out at 99.8%. Also, the inhibition at 0.1 µM at GSPT1 protein amounted to 77.7%. In addition, the inhibition at 10 µM on GSPT1 protein worked out at 95.7%.

In the case of `CN(C(=O)OC1CCCC1)[C@H](C(=O)NCc1ccc2c(c1)CN(C1CCC(=O)NC1=O)C2=O)c1ccccc1` (stereo partly drawn) [Compound 5-36, Cyclopentyl ((1S)-2-((2-(2,6-dioxypiperidin-3-yl)-1-oxoisoindoline-5-yl)methyl)amino)-2-oxo-1-phenylethyl) (methyl) carbamate], at GSPT1 protein, the inhibition at 0.1 µM worked out at 97% and the inhibition at 10 µM was determined as 97%. Besides, the IC50 in the assay on Jeko-1 cells was found to be 1 nM.

Take `CC(C)(C)OC(=O)N[C@@H](Cc1ccccc1)C(=O)NCc1ccc2c(c1)CN(C1CCC(=O)NC1=O)C2=O` (stereo partly drawn) [Compound 5-37, Tert butyl ((2S)-1-(2-(2,6-dioxypiperidin-3-yl)-1-oxoisoindoline-5-yl)methyl) amino)-1-oxo-3-phenylprop-2-yl) carbamate]: at GSPT1 protein (100 nM, Jeko-1 cells, 24 hours), the inhibition at 0.1 µM was determined as 97.8%. Further, the inhibition at 10 µM on GSPT1 protein (10 μM, Jeko-1 cells, 24 hours) is 99.5%. Moreover, the IC50 with Jeko-1 cells is 0.6 nM.

Turning to `CC(C)(C)OC(=O)NCC(C(=O)NCc1ccc2c(c1)CN(C1CCC(=O)NC1=O)C2=O)c1ccc(Cl)cc1` (stereo not drawn) [Compound 5-41, Tert butyl (2-(4-chlorophenyl)-3-((2-(2,6-dioxypiperidin-3-yl)-1-oxoisoindoline-5-yl)methyl)amino)-3-oxopropyl) carbamate], the inhibition at 0.1 µM on GSPT1 protein (100 nM, Jeko-1 cells, 24 hours) was determined as 96.9%. The inhibition at 10 µM on GSPT1 protein (10 μM, Jeko-1 cells, 24 hours) worked out at 96.7%. Also, in the assay on Jeko-1 cells, the IC50 was 0.04 nM.

Consider `CC(C)(C)OC(=O)N[C@@H](CC1CCCCC1)C(=O)NCc1ccc2c(c1)CN(C1CCC(=O)NC1=O)C2=O` (stereo partly drawn) [Compound 5-46, Tert butyl ((2S)-3-cyclohexyl-1-(2-((2,6-dioxopyridin-3-yl)-1-oxoisoidoline-5-yl)methyl)amino)-1-oxopropan-2-yl) carbamate], for which the IC50 with HNT-34 cells came to 3.7 nM; with Jeko-1 cells, 0.2 nM; in the assay with HL-60 cells, 8.3 nM. Also, on GSPT1 protein (100 nM, Jeko-1 cells, 24 hours), the inhibition at 0.1 µM was 90.6%. At GSPT1 protein (10 μM, Jeko-1 cells, 24 hours), the inhibition at 10 µM was 93.6%.

Consider `O=C1CCC(N2Cc3cc(CNC(=O)C(F)(F)c4ccc(Cl)cc4)ccc3C2=O)C(=O)N1` (stereo not drawn) [Reference compound, reference compound], for which the “Tumor inhibition rate (%)” value in assay [1] (IV 2 mg/kg Day 0-12, IP 20 mg/kg Day 13-26, once a day) is 28.3%.

Values taken from patent US20250214960A1, “COMPOUNDS HAVING ACTIVITY OF DEGRADING GSPT1 AND APPLICATION THEREOF” (SHANGHAI MEIZER PHARMACEUTICALS CO., LTD., priority 2021, published 2025).
